Values of other authors as cited in patent publication US10398653B2, “Solid preparations containing tofogliflozin and process of producing the same” (CHUGAI SEIYAKU KABUSHIKI KAISHA, priority 2013, dated 2019).

Target: T1, SGLT2 (Homo sapiens, UniProt P31639)
T1 sequence (P31639 1-672): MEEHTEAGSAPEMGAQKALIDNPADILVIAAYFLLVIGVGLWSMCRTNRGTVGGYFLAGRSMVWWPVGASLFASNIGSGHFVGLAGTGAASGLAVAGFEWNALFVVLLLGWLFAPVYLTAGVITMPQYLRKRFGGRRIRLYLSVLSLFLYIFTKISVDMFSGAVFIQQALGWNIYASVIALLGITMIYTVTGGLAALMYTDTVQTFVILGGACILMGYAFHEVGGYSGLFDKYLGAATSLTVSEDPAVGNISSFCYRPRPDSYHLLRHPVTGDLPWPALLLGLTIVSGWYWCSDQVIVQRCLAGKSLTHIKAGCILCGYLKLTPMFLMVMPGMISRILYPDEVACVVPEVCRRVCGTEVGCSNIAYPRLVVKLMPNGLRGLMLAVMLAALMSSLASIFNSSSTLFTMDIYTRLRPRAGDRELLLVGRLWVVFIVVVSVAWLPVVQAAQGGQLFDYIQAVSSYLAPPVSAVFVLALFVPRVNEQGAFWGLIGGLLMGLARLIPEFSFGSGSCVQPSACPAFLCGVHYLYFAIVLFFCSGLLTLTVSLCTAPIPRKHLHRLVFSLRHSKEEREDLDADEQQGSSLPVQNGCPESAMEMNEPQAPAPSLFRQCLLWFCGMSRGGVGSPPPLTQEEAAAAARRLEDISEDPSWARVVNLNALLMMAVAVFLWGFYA
Conditions: as stated in Patent Document 1

Structure (SMILES): CCc1ccc(Cc2ccc3c(c2)[C@]2(OC3)O[C@H](CO)[C@@H](O)[C@H](O)[C@H]2O)cc1 [tofogliflozin, 1,1-Anhydro-1-C-[5-(4-ethylphenyl)methyl-2-(hydroxymethyl)phenyl]-β-D-glucopyranose]
- Inhibitory activity against SGLT2: excellent inhibitory activity
